Test results taken from article PMC5198786 (ChemMedChem, 2016).
Values joined by “and” are separate entries in the source; they are usually repeats but may differ in a detail not shown here. Equal values may be shown once. “Also recorded” adds a separate entry of the source. Read-outs that look alike come from different tables or passages of the source.

Tests used:
mAC1 = mAC1 (Homo sapiens, UniProt Q08828); experiment: mAC assay, HEK293 cells stably expressing AC1; format: cell-based; conditions: for effect on selectively-stimulated cAMP response at AC1 (in words) / % of control AC1: 30 µM; for % of control AC1: HEK293-AC1, stimulated with 3 µM A23187, ± S.E.M.
mAC2 = mAC2 (Homo sapiens, UniProt Q08462); experiment: mAC assay, HEK293 cells stably expressing AC2; format: cell-based; conditions: for effect on selectively-stimulated cAMP response at AC2 (in words) / % of control AC2: 30 µM; for % of control AC2: HEK293-AC2, stimulated with 100 nM PMA, ± S.E.M.
mAC2, sequence (Q08462 whole entry): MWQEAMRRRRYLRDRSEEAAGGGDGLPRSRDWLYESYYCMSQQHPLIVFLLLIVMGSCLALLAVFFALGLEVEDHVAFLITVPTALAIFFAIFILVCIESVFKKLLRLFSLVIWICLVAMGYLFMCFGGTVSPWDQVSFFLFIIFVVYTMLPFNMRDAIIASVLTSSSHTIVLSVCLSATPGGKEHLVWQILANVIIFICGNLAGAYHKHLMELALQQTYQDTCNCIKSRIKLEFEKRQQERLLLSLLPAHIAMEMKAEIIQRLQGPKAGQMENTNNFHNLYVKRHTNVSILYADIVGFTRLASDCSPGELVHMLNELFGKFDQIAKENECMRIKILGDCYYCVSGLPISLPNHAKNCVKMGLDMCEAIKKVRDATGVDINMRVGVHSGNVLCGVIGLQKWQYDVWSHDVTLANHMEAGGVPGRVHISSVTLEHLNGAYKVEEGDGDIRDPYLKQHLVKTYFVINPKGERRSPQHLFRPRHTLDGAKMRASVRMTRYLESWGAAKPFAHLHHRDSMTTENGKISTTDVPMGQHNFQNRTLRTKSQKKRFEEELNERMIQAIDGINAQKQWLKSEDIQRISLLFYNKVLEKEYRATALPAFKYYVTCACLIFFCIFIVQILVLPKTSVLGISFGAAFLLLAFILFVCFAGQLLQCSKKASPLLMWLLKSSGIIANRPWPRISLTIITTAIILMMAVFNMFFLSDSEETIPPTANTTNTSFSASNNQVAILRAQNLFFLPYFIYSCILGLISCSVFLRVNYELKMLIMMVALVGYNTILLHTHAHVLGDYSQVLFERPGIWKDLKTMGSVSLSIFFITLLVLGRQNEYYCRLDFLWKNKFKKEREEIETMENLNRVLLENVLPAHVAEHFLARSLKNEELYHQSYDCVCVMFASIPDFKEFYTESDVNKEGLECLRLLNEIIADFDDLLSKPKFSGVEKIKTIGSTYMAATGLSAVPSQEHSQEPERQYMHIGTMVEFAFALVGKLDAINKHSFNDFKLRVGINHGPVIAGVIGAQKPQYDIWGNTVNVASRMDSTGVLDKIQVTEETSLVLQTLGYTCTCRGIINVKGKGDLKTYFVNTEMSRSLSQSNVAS

B. pertussis ACT = B. pertussis ACT (Bordetella pertussis, UniProt P0DKX7); experiment: cell-based; format: cell-based
B. pertussis ACT, sequence (P0DKX7 whole entry, looked up): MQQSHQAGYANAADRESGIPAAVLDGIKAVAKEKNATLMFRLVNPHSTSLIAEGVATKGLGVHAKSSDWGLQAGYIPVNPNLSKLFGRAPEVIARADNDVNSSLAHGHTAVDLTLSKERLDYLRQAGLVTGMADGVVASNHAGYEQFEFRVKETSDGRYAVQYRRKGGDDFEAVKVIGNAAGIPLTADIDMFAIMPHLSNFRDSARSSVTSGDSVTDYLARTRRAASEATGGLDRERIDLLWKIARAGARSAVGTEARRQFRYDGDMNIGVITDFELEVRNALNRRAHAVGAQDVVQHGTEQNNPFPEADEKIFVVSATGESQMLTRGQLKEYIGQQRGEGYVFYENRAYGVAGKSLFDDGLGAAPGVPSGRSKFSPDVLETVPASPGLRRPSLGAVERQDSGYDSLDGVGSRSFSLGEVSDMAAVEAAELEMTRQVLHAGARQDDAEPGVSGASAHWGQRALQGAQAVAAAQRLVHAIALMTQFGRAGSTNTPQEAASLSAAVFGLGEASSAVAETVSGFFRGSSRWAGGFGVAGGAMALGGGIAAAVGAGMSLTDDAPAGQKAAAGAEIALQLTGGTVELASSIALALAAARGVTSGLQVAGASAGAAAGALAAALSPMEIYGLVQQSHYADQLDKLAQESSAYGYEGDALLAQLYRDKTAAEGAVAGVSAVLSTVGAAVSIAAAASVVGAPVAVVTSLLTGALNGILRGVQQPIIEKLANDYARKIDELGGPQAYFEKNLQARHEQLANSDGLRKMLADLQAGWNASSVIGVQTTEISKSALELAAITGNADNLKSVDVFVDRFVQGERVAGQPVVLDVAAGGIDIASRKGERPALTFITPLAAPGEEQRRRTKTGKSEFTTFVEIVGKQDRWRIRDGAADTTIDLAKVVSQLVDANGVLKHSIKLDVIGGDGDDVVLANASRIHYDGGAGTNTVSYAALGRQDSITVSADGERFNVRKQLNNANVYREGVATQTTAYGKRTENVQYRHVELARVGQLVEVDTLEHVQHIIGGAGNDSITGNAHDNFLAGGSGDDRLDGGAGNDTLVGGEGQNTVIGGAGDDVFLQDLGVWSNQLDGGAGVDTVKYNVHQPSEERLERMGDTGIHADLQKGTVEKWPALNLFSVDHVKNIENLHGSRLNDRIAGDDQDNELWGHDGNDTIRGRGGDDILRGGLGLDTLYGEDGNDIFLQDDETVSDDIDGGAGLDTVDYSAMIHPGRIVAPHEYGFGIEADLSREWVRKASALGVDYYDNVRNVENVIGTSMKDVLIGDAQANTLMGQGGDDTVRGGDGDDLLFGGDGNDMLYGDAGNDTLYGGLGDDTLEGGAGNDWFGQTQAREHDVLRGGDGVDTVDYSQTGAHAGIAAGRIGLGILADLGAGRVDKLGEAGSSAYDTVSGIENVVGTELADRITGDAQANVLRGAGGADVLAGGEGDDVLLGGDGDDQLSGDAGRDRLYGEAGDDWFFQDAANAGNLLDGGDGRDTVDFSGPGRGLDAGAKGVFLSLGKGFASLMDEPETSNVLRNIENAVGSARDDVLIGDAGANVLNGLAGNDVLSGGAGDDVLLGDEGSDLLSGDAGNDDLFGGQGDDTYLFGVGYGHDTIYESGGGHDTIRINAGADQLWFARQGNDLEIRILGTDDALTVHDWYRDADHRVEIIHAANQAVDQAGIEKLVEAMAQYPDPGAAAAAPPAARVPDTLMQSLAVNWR

mAC5 = mAC5 (Homo sapiens, UniProt O95622); experiment: mAC assay, HEK293 cells stably expressing AC5; format: cell-based; conditions: for % of control AC5: 30 µM, HEK293-AC5, stimulated with 300 nM forskolin, ± S.E.M.
mAC5, sequence (O95622 whole entry): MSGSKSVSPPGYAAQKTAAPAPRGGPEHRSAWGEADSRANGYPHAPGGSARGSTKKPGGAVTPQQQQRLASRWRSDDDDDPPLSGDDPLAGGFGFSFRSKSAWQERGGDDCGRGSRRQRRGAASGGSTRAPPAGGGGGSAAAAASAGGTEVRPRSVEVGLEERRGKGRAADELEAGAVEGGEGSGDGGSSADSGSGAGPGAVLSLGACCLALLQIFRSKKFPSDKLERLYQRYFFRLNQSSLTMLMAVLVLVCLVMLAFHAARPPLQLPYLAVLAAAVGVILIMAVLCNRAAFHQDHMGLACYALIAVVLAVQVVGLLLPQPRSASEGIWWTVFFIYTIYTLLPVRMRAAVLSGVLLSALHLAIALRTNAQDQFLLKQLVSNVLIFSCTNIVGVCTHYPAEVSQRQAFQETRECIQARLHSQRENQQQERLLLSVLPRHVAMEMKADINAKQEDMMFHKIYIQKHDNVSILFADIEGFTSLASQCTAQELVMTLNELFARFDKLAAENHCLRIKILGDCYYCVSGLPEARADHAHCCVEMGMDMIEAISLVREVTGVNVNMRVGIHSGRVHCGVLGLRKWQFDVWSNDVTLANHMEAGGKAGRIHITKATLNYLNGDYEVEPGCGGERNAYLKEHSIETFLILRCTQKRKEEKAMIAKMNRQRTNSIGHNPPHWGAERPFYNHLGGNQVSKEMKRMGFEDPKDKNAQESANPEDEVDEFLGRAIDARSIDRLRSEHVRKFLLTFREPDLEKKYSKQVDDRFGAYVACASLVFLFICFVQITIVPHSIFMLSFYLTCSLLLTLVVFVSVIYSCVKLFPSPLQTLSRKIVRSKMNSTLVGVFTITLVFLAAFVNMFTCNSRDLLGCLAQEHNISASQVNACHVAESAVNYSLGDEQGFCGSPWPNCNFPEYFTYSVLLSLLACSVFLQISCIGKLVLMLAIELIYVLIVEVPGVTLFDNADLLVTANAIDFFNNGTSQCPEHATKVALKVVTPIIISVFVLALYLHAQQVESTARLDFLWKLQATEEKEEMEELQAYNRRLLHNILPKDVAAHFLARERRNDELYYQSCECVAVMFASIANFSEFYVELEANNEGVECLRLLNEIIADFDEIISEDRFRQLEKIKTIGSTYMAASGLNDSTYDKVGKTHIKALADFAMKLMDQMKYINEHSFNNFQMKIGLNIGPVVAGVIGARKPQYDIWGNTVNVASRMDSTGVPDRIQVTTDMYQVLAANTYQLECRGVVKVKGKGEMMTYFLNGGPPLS

J774A.1 cells = experiment: Effect on the viability of J774A.1 cells; format: cell-based, murine
edema factor (EF) = edema factor (EF) (Bacillus anthracis, UniProt P40136); experiment: biochemical
edema factor (EF), sequence (P40136 whole entry, looked up): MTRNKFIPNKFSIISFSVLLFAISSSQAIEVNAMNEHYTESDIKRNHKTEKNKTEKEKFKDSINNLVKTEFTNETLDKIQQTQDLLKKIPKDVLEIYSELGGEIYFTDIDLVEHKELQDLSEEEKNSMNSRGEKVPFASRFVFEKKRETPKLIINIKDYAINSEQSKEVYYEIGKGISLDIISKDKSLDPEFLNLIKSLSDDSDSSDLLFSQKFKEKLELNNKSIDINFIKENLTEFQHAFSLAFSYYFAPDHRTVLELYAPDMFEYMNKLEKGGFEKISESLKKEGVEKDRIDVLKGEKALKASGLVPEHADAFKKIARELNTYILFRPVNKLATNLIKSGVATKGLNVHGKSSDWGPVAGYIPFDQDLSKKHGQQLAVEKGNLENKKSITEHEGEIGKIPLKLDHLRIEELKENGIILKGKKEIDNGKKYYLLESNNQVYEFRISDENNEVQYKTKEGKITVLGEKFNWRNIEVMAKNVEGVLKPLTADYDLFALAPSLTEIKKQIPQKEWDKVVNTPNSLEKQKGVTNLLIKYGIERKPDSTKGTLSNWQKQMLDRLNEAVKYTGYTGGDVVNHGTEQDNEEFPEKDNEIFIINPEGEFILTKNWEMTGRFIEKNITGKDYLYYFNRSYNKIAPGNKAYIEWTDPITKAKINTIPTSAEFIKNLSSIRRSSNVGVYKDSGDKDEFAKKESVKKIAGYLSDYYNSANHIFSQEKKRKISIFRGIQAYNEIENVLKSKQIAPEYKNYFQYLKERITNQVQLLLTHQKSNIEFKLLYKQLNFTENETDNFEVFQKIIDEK

[1] = read-out: IC50 ACT inhibition in J774A.1 cells

| SMILES | % of control AC1 (mAC1) [%] | % of control AC2 (mAC2) [%] | IC50 (B. pertussis ACT; [1]) | % of control AC5 (mAC5) [%] | further results |
| --- | --- | --- | --- | --- | --- |
| CC(C)OC(=O)[C@H](Cc1ccccc1)NP(=O)(COCC(CNC(=O)c1cc(Cl)ccc1N)Cn1cnc2c(N)ncnc21)N[C@@H](Cc1ccccc1)C(=O)OC(C)C (stereo partly drawn) [Compound 29, Bis(L-phenylalanineisopropyl ester) prodrug of ((3-(6-amino-9H-purin-9yl)-2-(5-chloroanthraniloylaminomethyl)propoxy)methyl)phosphonic acid] | 189±15 | 193±48 | > 15 µM | 118±18 | effect on selectively-stimulated cAMP response at AC1 (in words) (mAC1): slightly potentiated; effect on selectively-stimulated cAMP response at AC2 (in words) (mAC2): slightly potentiated |
| CC(C)OC(=O)[C@H](Cc1ccccc1)NP(=O)(COCC(Cn1cnc2c(N)ncnc21)NC(=O)c1cc(Cl)ccc1N)N[C@@H](Cc1ccccc1)C(=O)OC(C)C (stereo partly drawn) [Compound 14, Bis(L-phenylalanineisopropyl ester) prodrug of ((3-(6-amino-9H-purin-9yl)-2-N-(5-chloroanthraniloyl)propoxy)methyl)phosphonic acid] | 118±12 | 172±34 | > 15 µM | 121±23 | effect on selectively-stimulated cAMP response at AC1 (in words) (mAC1): slightly potentiated; effect on selectively-stimulated cAMP response at AC2 (in words) (mAC2): slightly potentiated |
| Nc1ccc(Cl)cc1C(=O)NC(CO)Cn1cnc2c(N)ncnc21 (stereo not shown) [Compound 6] | 163±34 | 161±16 | > 15 µM | 98±14 | – |
| CC(C)OC(=O)[C@H](Cc1ccccc1)NP(=O)(COCC(COC(=O)c1cc(Cl)ccc1N)Cn1cnc2c(N)ncnc21)N[C@@H](Cc1ccccc1)C(=O)OC(C)C (stereo partly drawn) [Compound 26, Bis(L-phenylalanineisopropyl ester) prodrug of ((3-(6-amino-9H-purin-9yl)-2-(5-chloroanthraniloyloxymethyl)propoxy)methyl)phosphonic acid] | 94±10 | 149±27 | 12 µM and 12.1 µM | 97±11 | cytotoxic effect in J774A.1 cells (J774A.1 cells; 10 µM for 5h): no cytotoxic effect; also recorded: no observed cytotoxic effects; Viability (J774A.1 cells; 10 µM, 5 h, versus untreated control): 110% |
| Nc1ncnc2c1ncn2CCOCP(=O)(O)OP(=O)(O)OP(=O)(O)O [PMEApp, Adefovir diphosphate] | – | – | – | – | IC50 (edema factor (EF)): 0.0115 ± 0.0026 µM |
| Nc1ccc(Cl)cc1C(=O)OCC(CO)Cn1cnc2c(N)ncnc21 (stereo not shown) [Compound 20, 9-(3-O-(5-Chloroanthraniloyl)-2-(hydroxymethyl)propyl)adenine] | 122±15 | 146±10 | > 15 µM | 114±18 | – |
| Nc1ncnc2c1ncn2CC(CO)NC(=O)Nc1ccc(Cl)cc1C(=O)O (stereo not shown) [Compound 7, 2-(3-(1-(6-amino-9H-purin-9-yl)-3-hydroxypropan-2-yl)ureido)-5-chlorobenzoic acid] | – | – | – | – | remaining activity at 30 µM (mAC1; HEK293, read-out: % of control AC1): 178 ± 31%; remaining activity at 30 µM (mAC2; HEK293, read-out: % of control AC2): 164 ± 23%; IC50 (B. pertussis ACT): > 15 µM; remaining activity at 30 µM (mAC5; HEK293, read-out: % of control AC5): 110 ± 16% |
| Nc1ccc(Cl)cc1C(=O)NCC(CO)Cn1cnc2c(N)ncnc21 (stereo not shown) [Compound 22, 9-(3-N-(5-Chloroanthraniloyl)-2-(hydroxymethyl)propyl)adenine] | 156±23 | 149±26 | > 15 µM | 101±5 | – |
| Nc1ncnc2c1ncn2C1CCCO1 (stereo not shown) [SQ22536, reference compound] | – | 84±5 | – | 64±1 | – |
